Experimental data taken from patent publication US10500222B2, “Compositions and methods relating to treatment of infection” (Wayne State University, priority 2015, dated 2019).
In brackets after ≈: the same amount, converted by molar mass.

What was measured:
P. aeruginosa KEI 1025 = test: Bacterial growth and Minimum Inhibitory Concentration (MIC), strain KEI 1025; assay type: cell-based, Pseudomonas aeruginosa; details: for absorbance values of bacterial cultures: vs growth control
[1] = test system: P. aeruginosa ATCC strain 19660 infected cornea; test: Ocular response to bacterial infection (clinical score, slit lamp), strain 19660 keratitis; assay type: in vivo, C57BL/6 (B6) mice; details: pretreatment subconj. + IP, vs PBS
Source text: P. aeruginosa strains, KEI 1025, a non-cytotoxic clinical isolate strain expressing exoT and exoS, and not expressing exoU, described in Estrellas P S, Jr., et al., Curr Eye Res. 2000; 20:157-165 (obtained from Kresge Eye Institute, Detroit, Mich.), and a cytotoxic strain, 19660, expressing exoU, described in Finck-Barbancon V, et al., Mol Microbiol. 1997; 25:547-557; and Fleiszig S M, et al., Infect Immun. 1997; 65:579-586 (obtained from American Type Culture Collection, ATCC, Manassas, Va.), were grown in peptone tryptic soy broth (PTSB) medium in a rotary shaker water bath at 37° C. and 150 rpm for 18 h to an optical density (measured at 540 nm) between 1.3-1.8. Bacterial cultures were pelleted by centrifugation at 5,500 g for 10 min. Pellets were washed once with sterile saline, re-centrifuged, re-suspended and diluted in sterile saline. Anesthetized (using anhydrous ethyl ether) mice were placed beneath a stereoscopic microscope at 40× magnification. The left cornea was scarified with three 1-mm incisions using a sterile 25^5/8 gauge needle. The wounded corneal surface was topically treated with 5 μl containing 1×10^7 CFU/μl (KEI 1025) or 1×10^6 CFU/μl (ATCC strain 19660) of the P. aeruginosa suspension.
An established corneal disease grading scale, described in detail in Hazlett L D, et al., Invest Ophthalmol Vis Sci. 1987; 28:1978-1985, was used to assign a clinical score value to each infected eye at 1, 3 and 5 days post infection (p.i.). Clinical scores were designated as: 0=clear or slight opacity, partially or fully covering the pupil; +1=slight opacity, fully covering the anterior segment; +2=dense opacity, partially or fully covering the pupil; +3=dense opacity, covering the entire anterior segment; and +4=corneal perforation or phthisis. Clinical scores were used to statistically compare disease severity and were accompanied by photographs using a slit lamp (5 days p.i.) to confirm and illustrate the response.
The left eyes of B6 mice (n=5/group/time) were injected with 5 μl of 2 μg/μl glycyrrhizin (GLY) (Sigma-Aldrich, St. Louis, Mo.) or PBS (control) subconjunctivally, one day before infection. Similar treatment was done using carbenoxolone (CBX) (Sigma-Aldrich, St. Louis, Mo.). All mice were injected intraperitoneally (IP) at 1 and 3 days p.i. with 100 μl of GLY (2 μg/μl) or CBX (1 μg/μl). PBS served as control for all these experiments. In a separate similar experiment mice were treated one day before infection with GLY subconjunctivally and injected intraperitoneally (i.p.) with GLY plus recombinant (r) HMGB1 (1 μg/100 μl) or GLY plus PBS. IP injections were similarly given at 1 and 3 days p.i. […]

[2] = test system: protein levels in P. aeruginosa ATCC strain 19660 infected cornea; test: ELISA of corneal proteins, strain 19660 infection; assay type: in vivo, C57BL/6 (B6) mice; details: vs PBS
Procedure: (§1) The left eyes of B6 mice (n=5/group/time) were injected with 5 μl of 2 μg/μl glycyrrhizin (GLY) (Sigma-Aldrich, St. Louis, Mo.) or PBS (control) subconjunctivally, one day before infection. Similar treatment was done using carbenoxolone (CBX) (Sigma-Aldrich, St. Louis, Mo.). All mice were injected intraperitoneally (IP) at 1 and 3 days p.i. with 100 μl of GLY (2 μg/μl) or CBX (1 μg/μl). PBS served as control for all these experiments. In a separate similar experiment mice were treated one day before infection with GLY subconjunctivally and injected intraperitoneally (i.p.) with GLY plus recombinant (r) HMGB1 (1 μg/100 μl) or GLY plus PBS. IP injections were similarly given at 1 and 3 days p.i. In an additional experiment, KEI 1025 infected B6 mice were treated with 5 μl of 2 μg/μl GLY subconjunctivally at 6 hours p.i. and injected intraperitoneally at 1 and 3 days p.i. with 100 μl of GLY (2 μg/μl).
KEI 1025 or ATCC strain 19660 infected GLY or PBS treated, B6 mice (n=5/group/time) were sacrificed at 3 and 5 days p.i. and normal and infected corneas harvested. To quantify IL-1β and CXCL2 proteins, individual corneas were homogenized in 1 ml of 50 mM potassium phosphate buffer (pH 6.0) containing 0.5% HTAB (hexadecyltrimethylammonium bromide, Sigma). To quantify HMGB1, cathelicidin-related antimicrobial peptide (CRAMP), mouse beta defensin 2 (mBD2) and mouse beta defensin 3 (mBD3) protein levels, individual corneas were homogenized in 500 μl of PBS containing 0.1% Tween 20 (Sigma) and protease inhibitors (Roche, Indianapolis, Ind.). Corneal homogenates were centrifuged at 12,000 g for 10 min. A 50 μl aliquot of each supernatant was assayed in duplicate to quantify IL-1β, CXCL2, HMGB1 and mBD2 proteins. A 100 μl aliquot of CRAMP and mBD3 supernatant was assayed in duplicate to quantify corresponding protein levels. Undiluted supernatant aliquots were used to quantify all proteins except CXCL2 (1:2 dilution) and HMGB1 (1:5 dilution). An HMGB1 ELISA kit was purchased from Chondrex Inc., Redmond, Wash. CRAMP, mBD2 and mBD3 ELISA kits were purchased from MyBioSource, Inc., San Diego, Calif. All other ELISA kits were purchased from R&D Systems, Minneapolis, Minn. Assays were run following the manufacturer's instructions. Sensitivities of the assays were: 2.31 […] (mBD3).

[3] = test system: P. aeruginosa ATCC strain 19660; test: Quantification of viable bacteria (plate count), strain 19660 infection; assay type: in vivo, C57BL/6 (B6) mice; details: vs PBS
Procedure: as §1
Mice were sacrificed at 3 and 5 days p.i. and KEI 1025 or ATCC strain 19660 infected corneas from GLY, CBX or PBS (or GLY+/−rHMGB1) treated B6 mice were harvested (n=5/group/time). Each cornea was homogenized in 1 ml of sterile saline (0.85% NaCl, pH 7.4) containing 0.25% BSA. A 100 μl of the corneal homogenate was serially diluted (1:10) in sterile saline containing 0.25% BSA. […] Plates were incubated overnight at 37° C. and viable bacteria manually counted. […]

`CC1(C)[C@@H](O[C@H]2O[C@H](C(=O)O)[C@@H](O)[C@H](O)[C@H]2O[C@@H]2O[C@H](C(=O)O)[C@@H](O)[C@H](O)[C@H]2O)CC[C@]2(C)[C@H]3C(=O)C=C4[C@@H]5C[C@@](C)(C(=O)O)CC[C@]5(C)CC[C@@]4(C)[C@]3(C)CC[C@@H]12` [GLY, glycyrrhizin] was tested, and the MIC50 (P. aeruginosa KEI 1025; Pseudomonas aeruginosa, KEI1025, strain KEI 1025, 50% decrease in absorbance at 540 nm, 37° C., 18 h) was 20 mg/mL (≈ 24.3 mM), the MIC90 (P. aeruginosa KEI 1025; Pseudomonas aeruginosa, KEI1025, strain KEI 1025, 90% decrease in absorbance at 540 nm, 37° C., 18 h) was 40 mg/mL (≈ 48.6 mM) and the “Minimum Inhibitory Concentration 50 (MIC50)” value (P. aeruginosa KEI 1025; non-cytotoxic strains) was 20 milligrams/milliliter. For the same compound, the “absorbance values of bacterial cultures” value (P. aeruginosa KEI 1025; strain KEI 1025, grown with 20 mg/ml GLY) was “significantly reduced”, the “absorbance values of bacterial cultures” value (P. aeruginosa KEI 1025; strain KEI 1025, grown with 40 mg/ml GLY) was “significantly reduced” and the clinical scores ([1]; 1 day p.i.) was “not at 1 day p.i”. For the same compound, the clinical scores ([1]; 3 days p.i.) was “reduced clinical scores that were significant”, the clinical scores ([1]; 5 days p.i.) was “reduced clinical scores that were significant” and the “disease/opacity, slit lamp photographs” value ([1]; 5 days p.i.) was “less disease, reduced opacity”. The CXCL2 protein levels ([2]; strain 19660, 3 days p.i.) was “downregulated significantly”, the CXCL2 protein levels ([2]; strain 19660, 5 days p.i.) was “downregulated significantly” and the HMGB1 protein ([2]; strain 19660, normal cornea and infected groups) was “no significant differences”. For the same compound, the CXCL2 protein ([2]; strain 19660 experiment, normal cornea) was “No differences”, the “bacterial load (plate count)” value ([3]; 3 days p.i.) was “significantly reduced” and the “bacterial load (plate count)” value ([3]; 5 days p.i.) was “significantly reduced”.
